Reference: patent US7351701B2, “Therapeutic compounds” (Cancer Research Technology Limited, priority 2004, dated 2008)
Like-named read-outs stand apart in the source and are kept apart here.

Experiments:
VC8 cell line [1] = conditions: hamster, 24 h
Description: (§3) All cell lines in this study were grown in Dulbecco's modified Eagle's Medium (DMEM) with 10% Foetalbovine serum and penicillin (100 U/ml) and steptomycin sulphate (100 μg/mL) at 37° C. under an atmosphere containing 5% CO2.
(§4) The cells were harvested by trypsinisation, counted and seeded at varying densities in 10 cm dishes in fresh medium in the absence of drug for colony formation.
(§5) 7-10 days later the dishes were fixed with methanol:acetic acid 3:1 and stained with 0.4% crystal violet.
(§6) Colonies were counted and the survival relative to 1% DMSO control treated cells calculated.

VC8 cell line [2] = experiment: Clonogenic survival assay, VC8 cell line (lacks BRCA2)
Description: as §3, §4, §5, §6

PARP [3] = molecular target: T1, PARP (Mus musculus, UniProt P11103); experiment: PARP activity assay in digitonin-permeabilised L1210 cells; assay type: cell-based; parameters: endogenous in cells; host or cells: L1210 cells, digitonin-permeabilised; conditions: L1210 cells permeabilised prior to adding the inhibitor
T1 sequence (P11103 whole entry): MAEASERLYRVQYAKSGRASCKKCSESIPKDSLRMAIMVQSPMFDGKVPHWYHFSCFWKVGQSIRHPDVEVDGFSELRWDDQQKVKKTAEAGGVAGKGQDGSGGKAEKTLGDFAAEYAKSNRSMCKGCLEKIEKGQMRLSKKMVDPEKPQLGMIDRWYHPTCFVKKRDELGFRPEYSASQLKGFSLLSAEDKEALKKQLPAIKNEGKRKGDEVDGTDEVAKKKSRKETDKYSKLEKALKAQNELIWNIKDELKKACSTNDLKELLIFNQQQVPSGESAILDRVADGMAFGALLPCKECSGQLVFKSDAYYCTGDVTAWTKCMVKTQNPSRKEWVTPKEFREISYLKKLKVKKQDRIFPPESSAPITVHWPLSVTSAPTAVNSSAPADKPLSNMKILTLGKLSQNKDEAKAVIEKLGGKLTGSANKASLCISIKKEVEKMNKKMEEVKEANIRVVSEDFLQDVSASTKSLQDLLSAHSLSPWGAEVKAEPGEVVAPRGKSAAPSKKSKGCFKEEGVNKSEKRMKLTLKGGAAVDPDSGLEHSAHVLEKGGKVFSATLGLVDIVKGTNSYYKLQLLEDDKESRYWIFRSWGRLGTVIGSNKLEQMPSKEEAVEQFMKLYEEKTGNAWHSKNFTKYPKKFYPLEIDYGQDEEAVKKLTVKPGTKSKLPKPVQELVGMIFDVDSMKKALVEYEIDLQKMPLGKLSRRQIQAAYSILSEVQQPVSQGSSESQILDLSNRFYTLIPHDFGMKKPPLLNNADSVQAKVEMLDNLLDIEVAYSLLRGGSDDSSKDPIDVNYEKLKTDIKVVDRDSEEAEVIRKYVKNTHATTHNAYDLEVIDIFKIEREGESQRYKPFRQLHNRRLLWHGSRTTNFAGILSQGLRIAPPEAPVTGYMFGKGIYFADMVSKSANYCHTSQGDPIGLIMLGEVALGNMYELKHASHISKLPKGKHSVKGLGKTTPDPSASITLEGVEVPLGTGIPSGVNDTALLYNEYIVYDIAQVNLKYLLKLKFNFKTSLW
Description: (§1) Exponentially growing cells were exposed to 1% DMSO in culture medium (control) or a compound of formula I or III in 1% DMSO at the concentrations indicated in FIG. 4 to cells permeabilised with digitonin, or intact cells for 20 minutes prior to washing and digitonin-permeabilization. PARP activity was measured by incorporation of a [32P] labelled NAD+ substrate into TCA precipitateble polymers after stimulation by the addition of a blunt-ended oligonucleotide and compared with non-oligonucleotide-stimulated cells. PARP activity in tumour homogenates (1 in 40 in isotonic buffer) from formula III-treated mice was measured in the same way. PARP activity in pbls and tumour homogenates from formula I-phospate treated mice was measured by immunological detection of polymer using the 10H antibody. Briefly, tumour homogenates diluted to up to 1:1000 in isotonic buffer were incubated with 350 μM NAD for 6 min and blotted onto nitrocellulose membrane. The poly(ADP-ribose) (PAR) polymer formation was quantified by chemiluminescence detection using a Fuji LAS3000 UV Illuminator by reference to serial dilutions of a PAR standard, following incubation with 10H antibody to PAR and a secondary anti-mouse antibody.

PARP [4] = molecular target: T1, PARP; experiment: PARP activity assay in intact L1210 cells (20 minutes exposure before permeabilisation); assay type: cell-based; parameters: endogenous in cells; host or cells: L1210 cells, digitonin-permeabilised; conditions: exposed 20 minutes prior to permeabilisation
Description: as §1

[5] = Solubility of the phosphate salt; assay type: physicochemical; conditions: phosphate salt vs parent compound
[6] = Plasma and tumour concentrations in mice bearing SW620 xenografts after intraperitoneal administration; assay type: in vivo
PARP [7] = molecular target: T2, PARP (Homo sapiens, UniProt P09874); experiment: PARP activity in SW620 xenograft tumour homogenates after formula I-phosphate (10H antibody detection); assay type: in vivo, mice
T2 construct: PARP activity in tumour homogenates (1 in 40 in isotonic buffer) from formula III-treated mice; from tissue; host or cells: homogenates of SW620 xenograft tumours grown in mice
T2 sequence (P09874 whole entry): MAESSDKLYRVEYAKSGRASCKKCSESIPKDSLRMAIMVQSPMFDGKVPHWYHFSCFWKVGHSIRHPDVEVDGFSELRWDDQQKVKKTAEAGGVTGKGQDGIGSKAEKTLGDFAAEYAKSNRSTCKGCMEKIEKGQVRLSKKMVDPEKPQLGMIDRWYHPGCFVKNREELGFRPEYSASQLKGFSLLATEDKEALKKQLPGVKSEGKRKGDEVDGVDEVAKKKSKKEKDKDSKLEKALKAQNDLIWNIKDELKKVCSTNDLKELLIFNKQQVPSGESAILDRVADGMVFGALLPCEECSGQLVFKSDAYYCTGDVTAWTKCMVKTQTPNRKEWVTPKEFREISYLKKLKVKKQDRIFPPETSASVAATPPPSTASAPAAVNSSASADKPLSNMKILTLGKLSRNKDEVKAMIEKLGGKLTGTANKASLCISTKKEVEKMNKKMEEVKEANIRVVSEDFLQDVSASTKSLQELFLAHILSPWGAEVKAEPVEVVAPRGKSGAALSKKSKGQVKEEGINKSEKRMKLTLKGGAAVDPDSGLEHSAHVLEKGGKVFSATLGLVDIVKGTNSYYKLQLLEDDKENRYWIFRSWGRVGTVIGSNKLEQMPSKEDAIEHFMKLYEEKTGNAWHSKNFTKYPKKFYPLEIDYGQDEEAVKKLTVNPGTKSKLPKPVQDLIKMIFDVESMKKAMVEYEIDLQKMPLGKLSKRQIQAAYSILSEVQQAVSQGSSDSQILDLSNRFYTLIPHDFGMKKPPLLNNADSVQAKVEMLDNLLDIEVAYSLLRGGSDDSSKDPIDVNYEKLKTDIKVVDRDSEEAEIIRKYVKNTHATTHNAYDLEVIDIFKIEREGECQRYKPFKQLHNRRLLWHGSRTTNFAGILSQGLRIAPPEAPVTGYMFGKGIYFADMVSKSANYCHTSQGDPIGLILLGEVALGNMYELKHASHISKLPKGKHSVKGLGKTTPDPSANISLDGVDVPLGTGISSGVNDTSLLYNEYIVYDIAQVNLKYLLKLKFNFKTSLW
Description: (§2) FIG. 6 is a pair of bar charts showing the blood and tumour pharmacokinetics and pharmacodynamics with formula I-phosphate at 1 mg/kg (upper) and 10 mg/kg (lower) in mice bearing SW620 xenografts;
as §1, with “Briefly, tumour homogenates diluted to up to 1:1000 in isotonic buffer were incubated with 350 μM NAD for 6 min and blotted onto nitrocellulose membrane.” left out

PARP [8] = molecular target: T1, PARP; experiment: PARP activity in mouse peripheral blood lymphocytes after formula I-phosphate (10H antibody detection); assay type: in vivo; parameters: PARP activity in pbls and tumour homogenates from formula I-phospate treated mice; from tissue; host or cells: peripheral blood lymphocytes of treated mice; conditions: 10 mg/kg intraperitoneal, up to 24 hr
Description: as §2
as §1, with “Briefly, tumour homogenates diluted to up to 1:1000 in isotonic buffer were incubated with 350 μM NAD for 6 min and blotted onto nitrocellulose membrane.” left out

IrS ISF cell line = experiment: cells; assay type: cell-based; conditions: Cricetulus griseus, 24 h, read-out: LC50 (the concentration of the active component that kills 50% of the cells)
From the text: The AA8, irs1SF and CXR3 cell lines were provided by Larry Thompson.
Toxicity Assay—Clonogenic Survival Assay

PARP [9] = molecular target: T2, PARP; experiment: PARP activity in SW620 xenograft tumour homogenates from formula III-treated mice ([32P] NAD+ incorporation); assay type: in vivo; conditions: 10 mg/kg intraperitoneal
Description: FIG. 7 is a bar chart showing the pharmacokinetics and pharmacodynanics with formula III in mice bearing SW620 xenografts;
as §1, with “antibody. […]” for “antibody. Briefly, tumour homogenates diluted to up to 1:1000 in isotonic buffer were incubated with 350 μM NAD for 6 min and blotted onto nitrocellulose membrane.”, “antibody. The results were standardised by reference to the measured protein content of the homogenate.” for “antibody.”

SW620 xenografts = experiment: Tumour growth (median relative tumour volume) in mice bearing SW620 xenografts; assay type: in vivo
From the text: FIG. 8 is a graph showing the tumour growth (median relative tumour volume) in mice bearing SW620 xenografts following treatment with formula III in combination with temozolomide (TMZ) and with TMZ alone;
FIG. 9 is a graph showing the tumour growth (median relative tumour volume) of mice bearing SW620 xenografts following treatment with formula I-phosphate in combination with temozolomide (TMZ) and with formula I-phosphate and TMZ alone;
However, shortly after this time the tumour size begins to increase.

[10] = 10 mg/kg intraperitoneal, SW620 xenograft

In the case of `CNCc1ccc(-c2[nH]c3cc(F)cc4c3c2CCNC4=O)cc1` [Formula I], the CC50 (VC8 cell line [1]) is reported as 12 nM, the “LC90 (concentration of active component that kills 90% of the cells)” value (VC8 cell line [2]) is reported as 27 nM and the “PARP inhibitory activity, formula I compared with formula III” value (PARP [3]) is reported as “no difference”. For the same compound, the “PARP inhibitory activity, formula I compared with formula III” value (PARP [4]) was “more potent in intact cells”.

For `CNCc1ccc(-c2[nH]c3cc(F)cc4c3c2CCNC4=O)cc1.O=P(O)(O)O` [formula I-phosphate], the “solubility relative to formula I” value [5] was “increases the solubility”, the “levels of formula I in plasma and tumour” value ([6]; 1 mg/kg intraperitoneal, compared with 10 mg/kg) was “lower levels” and the “plasma concentration of parent compound formula I” value ([6]; 10 mg/kg intraperitoneal, 24 hr after administration) was “none could be detected”. For the same compound, the “tumour concentration of parent compound formula I” value ([6]; 10 mg/kg intraperitoneal, 24 hr after administration, SW620 xenograft) was “significant levels were detectable”, the “plasma concentration of parent compound formula I” value ([6]; 10 mg/kg intraperitoneal, thirty minutes after administration) was “highlevels” and the “tumour concentration of parent compound formula I” value ([6]; 10 mg/kg intraperitoneal, thirty minutes after administration, SW620 xenograft) was “highlevels”. The “effect on PARP activity” value (PARP [7]; 1 mg/kg intraperitoneal, compared with 10 mg/kg, pbls and tumour) was “less pronounced effect”, the “PARP activity in tumour” value (PARP [7]; 10 mg/kg intraperitoneal, up to 24 hr, SW620 xenograft) was less than 50 % control and the “PARP activity in pbls” value (PARP [8]) was less than 50 % control.

For `CN(C)Cc1ccc(-c2nc3cccc4c3n2CCNC4=O)cc1` [Formula III], the CC50 (IrS ISF cell line) was 100 nM, the distribution to tumour [6, 10] was “distributes well to the tumour” and the “retention in tumour relative to plasma with time” value [6, 10] was “preferentially retained with time”. The “PARP activity in the tumour” value (PARP [9]) was “inhibits PARP activity in the tumour”, the “time over which tumour shrinks to an undetectable size” value (SW620 xenografts; formula III 5 mg/kg daily×5 with temozolomide 68 mg/kg daily×5) was “around 15 days” and the “further time tumour size remains undetectable” value (SW620 xenografts; formula III 5 mg/kg daily×5 with temozolomide 68 mg/kg daily×5, then begins to increase) was 50 days. For the same compound, the “tumour outcome at autopsy” value (SW620 xenografts; formula III 15 mg/kg daily×5 with temozolomide, end of the experiment) was “complete tumour regression”, the “further time tumour size remains undetectable” value (SW620 xenografts; formula III 15 mg/kg daily×5 with temozolomide, until the end of the experiment) was 80 days and the “LC90 (concentration of active component that kills 90% of the cells)” value (VC8 cell line [2]) was 1200 nM. The CC50 (VC8 cell line [2]; read-out: LC50) was 43 nM and the “PARP inhibitory activity, formula I compared with formula III” value (PARP [3]) was “no difference”.
